Where only a bound is given, the exact number is not on record here.

For 64 molecules, melting point results are on record in a melting point compilation (Tetko et al.; mined from patent text by program, amines drawn as free bases though some values may be those of a salt).

In general, melting point refers to the temperature of the solid-liquid transition. Regarding `CC(=O)c1ccc2c(c1)C(C(=O)Nc1cccc(C(=O)Nc3ccccc3)c1)C(=O)N2C` (centres undefined), the melting point fell in the range of 178 to 179 °C.
Then `COC(=O)c1nc(-c2ccc(Cl)c(OC)c2F)nc(O)c1OC`, with 177 to 179 °C; and `Cc1cc(F)ccc1-c1nc(NCCNC(=O)NC2CCCCC2)nc2c1ccc(=O)n2-c1c(F)cccc1F`, with 131 to 144 °C; and `CCOC(=O)C(C#N)=Cc1c(Cl)n(C)c2ccccc12`, with 131 to 132 °C.
Turning to `CCOC(=O)C(CCc1ccc2c(c1)OCO2)(Cc1cc(OC)c(OC)c(OC)c1)C(=O)OCC`, the melting point lay within 79.5 to 81 °C.
Then `Cc1cc(-c2cc(=O)c3cccnc3o2)ccc1O`, with 300 to 302 °C; and `CNc1nc(SC)ncc1C=O`, with 98 to 100 °C.
Then `Cc1nc2ccccc2c2c([N+](=O)[O-])cnn12`, with 178 to 179 °C; and `O=C1CCC2(CC1)CCC(O)CC2`, with 65 to 67 °C.
With `COc1nc(SC)nc(OC)c1C=CC(C)=O` the figure was 112 °C.
In turn, `CC(C(=O)N(C)C)n1ccc(-c2c(Cl)cccc2Cl)n1` (centres undefined) yielded a melting point of 88 to 90 °C.
Then `CC(C)C1COC(c2ccccc2CO)=N1` (centres undefined), with 62 to 72 °C; and `CC(=O)Nn1cc(-c2cccnc2)nc1Cl`, with 129 to 131 °C.
Then `CC(=O)N1CN(C(=O)c2c(F)cccc2F)C(=O)N(c2ccc(Cl)cc2)C1`, with 171 to 172 °C; and `CCOC(=O)COc1cc2cc(C3CCCC3)sc2c(Cl)c1Cl`, with 65 to 67 °C.
With `CCN(CC)C(=O)c1c(S(N)(=O)=O)cc(OC)c(OC)c1C(C)C` the figure was 138 to 140 °C; with `COC(=O)CCCc1cc2cc(C(F)(F)F)ccc2n1S(=O)(=O)c1ccc2nc(C)sc2c1`, 163 to 168 °C.
In the case of `COc1ccc(C(=O)O)c2cccc(S(=O)(=O)N(C)C)c12`, the melting point fell in the range of 220 to 221 °C.
Then `COc1ccc(C2=NN(c3ccc([N+](=O)[O-])cc3)C(=O)[C@H]3CC=CC[C@@H]23)cc1OC` (relative stereo), with 179 to 182 °C.
With `CC(C#N)(c1ccc(F)cc1)c1ccc(N2NCC(=O)NC2=O)cc1Cl` (centres undefined) the figure was 122 °C; with `COCC1=C(c2ccccc2)C(=O)N(C(C)(C)C(=O)OC(C)(C)C)CO1`, 65 to 67 °C; with `Cc1c2ccccc2nc2ccc3nc4ccccc4c(C)c3c12`, 217 to 218 °C.
With `O=C(c1cnc2c(n1)CCCC2)C1CCCCC1`, the melting point fell in the range of 63.5 to 64.5 °C.
As to `CCc1cc2c3c(ccc2[nH]1)OCC(CN1CC=C(c2c[nH]c4ccccc24)CC1)O3` (centres undefined), the melting point fell in the range of 175 to 177 °C.
Then `CCOC(=O)c1cn(-c2nonc2C)c2c(F)c(F)c(F)cc2c1=O`, with 201 to 202 °C.
In turn, `C=C(C)CO[C@H]1[C@H](C)OC(=O)[C@@H](NC(=O)c2nccc(OC)c2OCOC(C)=O)COC(=O)[C@@H]1Cc1ccccc1` came in with a melting point of 102 to 104 °C.
Then `COc1cc2c(cc1C#Cc1ccc(C(=O)O)cc1)C(C)(C)CCC2(C)C`, with 231 to 234 °C; and `C=C1CCc2c(F)c(F)cc3c(=O)c(C(=O)O)cn1c23`, with 220 to 232 °C.
For the molecule `NC(=O)CN1C(=O)C[C@@H]2CCCCC[C@@H]21` (relative stereo), the melting point fell in the range of 140 to 142 °C.
Then `CC(=O)OCc1ccc(-c2ccccc2)cn1`, with 71 to 72 °C.
Regarding `C/C(=C\C=C(c1ccccc1)c1ccccc1)C(=O)Oc1ccc([N+](=O)[O-])cc1`, the melting point was 139 to 141 °C.
Molecule `Nc1ccc(Br)cc1CC(F)(F)F` displayed a melting point of 100 to 101 °C.
Take `COc1ccc(C(=O)Nc2ccc(F)cc2)cc1NCc1cccs1`: the melting point was in the range of 179 to 181 °C.
Then `Cc1ccc(C(=O)N[C@H](Cc2ccc(C(F)(F)F)cc2)[C@@H](O)c2ccc(F)cc2)c2ccccc12` (racemic), with 198 to 199 °C; and `COC(=O)c1cc(NC(=O)c2cc(NC(=O)c3cc(NC(=O)OC(C)(C)C)cn3C)cn2C)cn1C`, with 134 °C.
Then `O=C1Nc2ccccc2C(=O)C1=O`, with greater than 250 °C; and `COc1ccc2c(c1)CN(c1ccc3c(ccn3C)c1)C2`, with 193 to 196 °C.
Then `CC(Cc1ccc(Oc2cc(N3CCN(Cc4ccccc4)CC3)ncn2)cc1)(Oc1ccccc1)C(=O)O` (centres undefined), with 107 to 109 °C; and `Cc1ccc2c(c1)C(NC(=O)CCl)CC(C)(C)O2` (centres undefined), with 147 to 148 °C.
For `CC1(C)CNc2cc(Br)ccc21`, the melting point was in the range of 100 to 102 °C.
In the case of `CC(C#N)(COc1cc(C#N)ccc1C(F)(F)F)NC(=O)c1ccc(SC(F)(F)F)cc1` (centres undefined), the melting point lay within 126 to 127 °C.
With `Clc1ncc(Br)c(NC2CCCC2)n1` the figure was 95 to 96 °C; with `CCOC(=O)/C(=N\OC1(C)CCCC1)c1csc(N)n1`, 94 to 95 °C.
Then `O=Cc1c(OCc2ccccc2)cccc1C1OCCCO1`, with 85 to 87 °C.
`CC1COC(c2ccccc2)(c2ccc(Cl)nc2)O1` (centres undefined) showed a melting point of 44 to 51 °C.
Then `Cn1c(=O)c(-c2c(Cl)cccc2Cl)cc2cnc(NCCc3ccccn3)nc21`, with 173 to 174 °C.
With `CC(C)(C)c1cc(C(=O)C2CC2)cc(C(C)(C)C)c1O` the figure was 140 to 142 °C.
Molecule `Cc1cn(S(C)(=O)=O)c2c1C(=O)CC(c1ccccc1)C2` (centres undefined) registered a melting point of 80 to 83 °C.
For `N#CC(N)=C(C#N)N=Cc1nn(-c2c(Cl)cc(C(F)(F)F)cc2Cl)nc1C(F)(F)F`, the melting point is 218 to 220 °C.
Molecule `CCNCC1CCN(c2c(F)cc3c(=O)c(C(=O)O)cn(C4CC4C)c3c2F)C1` (centres undefined) had a melting point of 225 to 228 °C.
Then `CC(=O)Nc1ccc2c(c1)C(=O)CC2`, with 176 to 180 °C; and `CCc1cc2c(OC)ccc(C)c2nc1Cl`, with 101 to 102 °C.
In turn, `CCCCCCCCCCCCNC(=O)COc1ccc(OC(=O)c2ccccc2)cc1[N+](=O)[O-]` displayed a melting point of 110 to 111 °C.
The molecule `COc1ccc(CN(C)CCCOc2ccc(NC(=O)c3cccc4c(=O)c5ccccc5[nH]c34)cc2)cc1OC` displayed a melting point of 130 °C.
Then `Cc1oc2c(-c3ccc(F)cc3)c(-c3ccc(S(C)(=O)=O)cc3)nn2c1C`, with 158 to 160 °C; and `CCc1nc2cc(/C=C/C(=O)NO)c(F)cc2c(=O)n1CCc1ccccc1`, with 219 to 221 °C.
With `Clc1cncc(Cl)c1C1=NC(c2ccc(Br)cc2)CO1` (centres undefined) the figure was 102 to 103 °C.
The molecule `COC(=O)c1cc(S(N)(=O)=O)cc2c1OCCO2` gave a melting point of 225 to 226 °C.
`CSc1ccc(CCCC(=O)O)cc1` registered a melting point of 53 to 55 °C.
Molecule `CC(=O)N1CC=C(c2cc(C)c(O)cc2C)CC1` displayed a melting point of 220 °C.
Then `O=C(NC1CCN(CCc2cccc3ccccc23)CC1)c1ccccc1`, with 160 to 162 °C; and `CCCCc1nc2c(N)nc3ccccc3c2n1CCCCNS(=O)(=O)c1ccccc1`, with 75.5 to 79 °C; and `COc1ccc(C(=O)CSc2cccc(OC)c2)cc1`, with 53 to 54 °C.
With `CCCCCc1noc(-c2ccc(OCCC3CCN(c4ccc(C)nn4)CC3)cc2)n1` the figure was 111 °C.
